Assay results from patent US5407954A, “Arylalkoxyphenoxy-imidazoline compounds” (Merrell Dow Pharmaceuticals Inc., priority 1994, dated 1995).

How the values were obtained:
[1] = target: T1, cloned rat 5-HT2 receptor (Rattus norvegicus, UniProt P14842); experiment: Affinity for 5-HT2 receptors on transfected fibroblast cell membranes ([125I]LSD competition binding, NIH 3T3 GF-6 cells); details: NIH 3T3 GF-6 cell membranes, 37° C., 60 minutes, pH 7.6
T1 construct: expressed in transfected cells; host or cells: NIH 3T3 fibroblasts, line 'GF-6'
Text: Affinity for 5-HT2 receptor on transfected fibroblast cell membranes (partial agonist [^125 I]lysergic acid diethylamide; Elliott, M. J., Kent, A., J. Neurochem. 53: 191-196, 1989.; Peroutka, S. J., Snyder, S. H. , Molec. Pharmacol. 16: 687-699, 1979; Kadan, J. M., Krohn, A. M., Evans, M. J., Ualtz, R. L., Hartig, P. R.; J. Neurochem. 43: 601-606, 1984) is used to determine the potency of test compounds to compete with [^125 I]LSD binding to a NIH 3T3 cell line containing the cloned rat 5-HT2 receptor designated "GF-6" by its originators.[Julius, D., Huang, K. N., Livelli, T. J., Axel, R., and Jessell, T. M., Proc. Natl. Acad. Sci. USA 87:928-932, 1990]
Confluent GF6 cell monolayers are dissociated in Versene and centrifuged at 1000 rpm for 5 minutes. The resulting pellet is homogenized in 10 volumes 0.32M sucrose using a Dounce glass homogenizer, 10 strokes. The suspension is centrifuged at 44,000×g for 15 minutes, and the pellet suspended in […] Hepes-KOH, pH 7.4, using a Polytron. The membranes are then stored at -80° C.
The assay tubes, in triplicate, receive 20 μl of 5 nM [^125 I]LSD, 20 μl of test compound (10^-9 M to 10^-5 M or 10 μM ketanserin for nonspecific binding), 40 μl of membrane suspension (1-5 μg protein/assay tube) in a final volume of 0.1 ml of 50 mM Tris- HCl, pH 7.6. Incubations are carried out at 37° C. for 60 minutes and terminated by addition of 2 ml ice-cold assay buffer end filtered through GF/B glass fiber filters (presoaked in 0.1% polyethyleneimine). Filters are washed twice with 5 ml of cold buffer and transferred to polystyrene tubes for radioactivity determination. Protein concentration was measured using the Bradford dye binding method.
Inhibition of [^125 I]LSD binding by a test compound is indicative of affinity for the 5HT2 receptor site. The molar concentration of a Compound which causes 50% inhibition of the binding of ligand is the IC50. The IC50 value is converted to the Ki value by the method of Cheng and Prusoff.[Cheng, Y. -C and Prusoff, Biochem. Pharmacol. 22:3099-3108, 1973].

migraine headaches = details: in vivo; cited from earlier work
5-HT1C receptor = details: albeit nonselective; cited from earlier work
migraine = details: in vivo; cited from earlier work

T1 sequence (P14842 whole entry): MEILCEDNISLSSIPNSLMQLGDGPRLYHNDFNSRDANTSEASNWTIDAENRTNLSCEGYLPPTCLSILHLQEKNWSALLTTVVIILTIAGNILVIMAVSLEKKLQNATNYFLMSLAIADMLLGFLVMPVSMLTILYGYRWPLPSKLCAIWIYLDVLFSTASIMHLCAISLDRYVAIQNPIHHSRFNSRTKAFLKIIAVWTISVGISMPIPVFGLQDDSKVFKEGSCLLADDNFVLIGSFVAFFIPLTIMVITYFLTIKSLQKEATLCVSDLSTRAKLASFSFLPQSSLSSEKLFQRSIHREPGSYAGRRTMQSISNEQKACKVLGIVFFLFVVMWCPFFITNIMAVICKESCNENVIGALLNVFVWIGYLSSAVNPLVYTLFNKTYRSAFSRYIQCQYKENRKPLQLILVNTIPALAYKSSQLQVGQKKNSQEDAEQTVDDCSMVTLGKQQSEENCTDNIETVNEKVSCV

Question: Which IC50 [1] does the source give for `COc1ccc(CC(Oc2ccccc2OCc2ccccc2)C2=NCCN2)cc1` (stereo not drawn) [100,499, 2-[1-(2-benzyloxyphenoxy)-2-(4-methoxyphenyl)]ethylimidazoline] here?
Answer: The IC50 was 3.5 nM.

Question: For `c1ccc(COc2ccccc2OC(Cc2ccccc2)C2=NCCN2)cc1` (stereo not drawn) [101,600, 2-[1-(2-benzyloxyphenoxy)-2-phenyl]ethylimidazoline], which IC50 [1] is on record?
Answer: The IC50 was 2.5 nM.

Question: For `c1ccc(CCOc2ccccc2OC(Cc2ccccc2)C2=NCCN2)cc1` (stereo not drawn) [101,623, 2-(1-[2-(2-phenylethoxy)phenoxy]-2-phenyl)ethylimidazoline], which IC50 [1] is on record?
Answer: Its IC50 is 14 nM.

Question: For `c1ccc(CCCC(Oc2ccccc2OCc2ccccc2)C2=NCCN2)cc1` (stereo not drawn) [102,588, 2-[1-(2-benzyloxyphenoxy)-4-phenyl]butylimidazoline], which IC50 [1] is on record?
Answer: Its IC50 is 167 nM.

Question: For `Clc1cccc(N2CCNCC2)c1` [m-chlorophenylpiperazine], which inducing migraine headaches (migraine headaches) is on record?
Answer: Its inducing migraine headaches is “capable of inducing migraine headaches”.

Question: For `CC[C@@H](CO)NC(=O)[C@@H]1C=C2c3cccc4c3c(cn4C)C[C@H]2N(C)C1` [methysergide], which “5-HT1C receptor antagonist activities” value (5-HT1C receptor) is on record?
Answer: The value was “potent 5-HT1C receptor antagonist activities (albeit nonselective)”.

Question: What about the migraine prophylactic effectiveness (migraine) of the same compound?
Answer: The migraine prophylactic effectiveness was “well established as effective migraine prophylactic agents”.

Question: What does the source list for `CN1CCC(=C2c3ccccc3CCc3sccc32)CC1` [pizotifen]?
Answer: 5-HT1C receptor antagonist activities (5-HT1C receptor): potent 5-HT1C receptor antagonist activities (albeit nonselective); migraine prophylactic effectiveness (migraine): well established as effective migraine prophylactic agents
